Test results reported in patent US20050256168A1, “Compositions for oral administration for the treatment of interferon-responsive disorders” (priority 2004, published 2005).
“Also recorded” adds a separate entry of the source. Where two headings read alike, the source gives them in different places.

How the values were obtained:
[1] = test system: bovine viral diarrhea virus (BVDV); assay: BVDV antiviral activity in tissue cultures of infected MDBK cells; type: cell-based
Excerpt: The IC50 for 6-O-nonyl-deoxynojirimycin, for example, bovine viral diarrhea virus (BVDV), in tissue cultures of BVDV infected MDBK cells, a surrogate of hepatitis C virus is 3 micro-molar.

glucosidase = assay: Glucosidase inhibitory activity; type: biochemical
2′,5′ OAS gene = assay: Induction of 2′,5′ OAS genes in Hep G2 cells by R/T PCR and Southern blot-R/T PCR; settings: 16 hours; for induction of medium (p69) and small (p40) 2′,5′ OAS genes: R/T PCR
Protocol: Hep G2 cells were treated with the indicated doses of A) alpha galactosyl ceramide or with B) N-9-oxadecyl-6-methyl-DGJ (b) for 16 hours and the induction of the medium (p69) and small (p40) isoforms of the […] OAS gene determined by R/T PCR. For each set, actin levels were also monitored as a control for loading. […] C) Southern blot- R/T PCR of RNA from Hep G2 cells treated with the indicated concentration of N-9-oxadecyl-6-methyl-DGJ or with 10^3 iU/mL interferon alpha (2a/2b) for 16 hours. Briefly, limited PCR was performed as described for 5, 10, 15 cycles and the PCR products transferred to nylon membrane before hybridization with a 1377 bp cDNA probe from nucleotides 1 to 1377 from the published OAS-40/46 gene (accession #X02874). Actin controls were performed in the same manner.
The ability of alpha galactosyl ceramide and N-9-oxadecyl-6-methyl-DGJ to directly induce the innate host defense pathway in tissue culture was determined by analysis of the induction of the 2′-5′ oligoadenylate synthetase genes (2′,5′ OAS) using an RT PCR based methodology.
Briefly, Hep G2 cells were incubated with either alpha galactose ceramide or the synthetic glycolipids shown in FIG. 1 for the desired length of time and the total RNA harvested using Tri-reagent as per manufactures directions (Gibco-BRL, Rockville, Md., USA). RNA samples were further purified using the Ambion DNA™ free kit, (Ambion, Inc., Austin, Tex., USA) before reverse transcriptase (RT) PCR with the PCR conditions and primers exactly as reported in the literature. PCR was performed in the absence of (RT) for 50 cycles to ensure no DNA contamination. Dilution experiments were used to ensure that PCR was within the linear range of the assay. Southern blot-R/T PCR of RNA from Hep G2 cells treated with the indicated concentration of N-9-oxadecyl-6-methyl-DGJ or with interferon alpha (2a/2b) for 16 hours was also performed to allow for quantification of induction. Briefly, limited PCR was performed as described above for 5, 10, 15 cycles and the PCR products transferred to nylon membrane. Hybridization was carried out using a 1377 bp cDNA probe from nucleotides I to 1377 from the published OAS40/46 gene (accession #X02874). OAS-40/46 specific bands were identified and quantified by phosphor image analysis [Bio-Rad, Hercules, Calif.].

HBV [2] = settings: from Antimicrob Agents Chemother. 2002; 46(12): 4004-4008; cited from earlier work
HBV [3] = assay: Secretion of enveloped HBV DNA into culture medium of Hep G2 2.2.15 cells; type: cell-based, hepatitis B virus; settings: for IC50: Hep G2 2.2.15 cells, 3 days, read-out: IC50 (anti-viral, HBV); for secretion of enveloped HBV (HBV rc DNA in culture medium): Hep G2 2.2.15, 3 days, alpha galactosyl ceramide 0.1-100 nM, N-9-oxadecyl-6-methyl-DGJ 0.8-25 μM, interferon alpha 10^3 iU/mL
Hep G2 2.2.15 cells = assay: MTT toxicity test; type: cell-based
Protocol: A) Alpha galactosyl ceramide inhibits HBV in vitro. […] Briefly, Hep G2 2.2.15 cells, which secrete hepatitis B virus, were either left untreated or treated with 10^3 iU/mL of interferon alpha (2a/2b) or 0.1 nM to 100 nM of alpha galactosyl ceramide for three days and the amount of HBV specific DNA detected in the culture medium using a method which discriminates between enveloped and non enveloped viral particles. The HBV rc DNA, which decreases with both interferon and alpha galactose ceramide treatment is indicated. […] Hep G2 2.2.15 cells were left untreated or treated with varying doses of the synthetic glycolipid N-9-oxadecyl-6-methyl-DGJ (0.8 μM to 25 μM) for 3 days and the level of HBV secreted into the culture medium detected as before. […] The HBV rc DNA, which decreases with N-9-oxadecyl-6-methyl-DGJ, interferon, and alpha galactosyl ceramide treatment is indicated. C-D) Cells treated with alpha-galactosyl ceramide or the synthetic glycolipid N-9-oxadecyl-6-methyl-DGJ were tested for viability using the standard MTT toxicity test. For panel C: X-axis: From left to right: Untreated cells; Alpha galactosyl ceramide at 10 μM, 5 μM, 2.5 μM, 1 μM, 0.5 μM, 0.1 μM. Y-axis, percent viability as compared to untreated group. For Panel D: X-axis: From left to right: Untreated cells; N-9-oxadecyl-6-methyl-DGJ at 2000 μM, 800 μM. 400 μM, 200 μM, 100 μM, 10 μm. Y-axis, percent viability as compared to untreated group.
Toxicity was determined by mitochondrial toxicity testing (MTT) of cells that had been exposed to compounds in a manner similar to the anti-viral assays except cells were treated in 24 well trays. Briefly, Hep G2 2.2.15 cells were treated with drug as indicated in the figure legends for 3 days, the media removed and replaced with 100 μl of a 10 mg/ml solution of tetrazolium bromide [[3-[4,5-dimethylthiazol-2-yl]-2,5-diphenyltetrazolium bromide, Sigma Chemicals] for one hour at 37° C. Addition of 100-200 μl of dimethylsulfoxide (DMSO) led to color development. Supernatants were removed and placed in a 96 well tray for analysis. OD values were read at 590 nm.

HCV replicon = assay: HCV subgenomic replicon RNA level in 9-13 cells (Northern blot); type: cell-based, hepatitis C virus; settings: 48 hours
Protocol: A) Total RNA was isolated, resolved through agarose gels and hybridized to a radioactive probe specific for HCV NS5B. After washing, the blot was and re-probed with radioactive beta-actin specific sequences to control for loading of lanes.
Beta-actin protein and RNA were used as controls in these experiments.
9-13 cells were seeded in T25 flask at 3×10^6 cells. […] Northern blot analysis was done to analyze HCV replicon RNA level.
Briefly, 2 μg total RNA was electrophoresed through a 1.0% agarose gel containing 2.2 M formaldehyde, transferred to a nylon membrane and immobilized by Lw cross-linking (Stratagene). Hybridization was carried out using an alpha-[^32P]CTP-labeled probe with random primers on a 2 kb NS5B DNA fragment in a quick hybridization solution (Amersham Bioscience, Piscataway, N.J.) for 16 h at 65° C. The membranes were washed once in 2×SSC/0.1% SDS for 30 min at room temperature and twice in 0.1×SSC/0.1% SDS for 30 min at 65° C.

[4] = test system: HBsAg, core antigen, HBV polymerase; assay: Effect on HBsAg and core antigen production or secretion and HBV polymerase activity; type: cell-based, hepatitis B virus; settings: at concentrations that were highly anti-viral
Excerpt: Both alpha galactosyl ceramide and the “alkovirs”, described herein, have anti-hepatitis B virus activity (FIG. 2).
This indicates both that the compounds were both well tolerated at these concentrations and that the anti-viral activity cannot be explained by a direct effect upon the synthesis of viral products but rather through the activation of a cellular defense mechanism.

For `CCCCCCCCCOCC1NCC(O)C(O)C1O` (centres unmarked) [6-O-nonyl-deoxynojirimycin], the IC50 ([1]; BVDV infected MDBK cells, surrogate of hepatitis C virus, read-out: IC50 against BVDV) was 3 µM, the antiviral activity ([1]; virus not named at b41, BVDV assumed) was “retains antiviral activity” and the glucosidase inhibitory activity (glucosidase) was “no glucosidase inhibitory activity”.
In the case of `CCOCCCCCCN1CC(O)C(O)C(O)C1C(C)O` (centres unmarked) [N-7-oxanonyl-6-methyl-DGJ], the “induction of medium (p69) and small (p40) 2′,5′ OAS genes” value (from here on “induction of medium (p69) and small”) (2′,5′ OAS gene) is given as “did not detectably induce 2′,5′ OAS gene expression” and the “anti-viral activity against hepatitis B virus” value (HBV [2]) is given as “no anti-viral activity against hepatitis B virus; also recorded: limited anti viral activity against HBV”.
For `COCCCCCCCCN1CC(O)C(O)C(O)C1C(C)O` (centres unmarked) [N-9-oxadecyl-6-methyl-DGJ], the IC50 (HBV [3]) was about 1 µM, the “secretion of enveloped HBV (HBV rc DNA in culture medium)” value (“secretion of enveloped HBV” for short) (HBV [3]) was “exerted anti-viral activity at varying doses” and the CC50 (Hep G2 2.2.15 cells) was over 2000 µM. For the same molecule, the toxicity (Hep G2 2.2.15 cells) was “little or no toxicity”, the “fold induction of the 2′,5′ OAS gene” value (2′,5′ OAS gene; 70 μM, Southern blot-R/T PCR) was 20 fold and the “induction of medium (p69) and small” value (2′,5′ OAS gene) was “induced only the small (p40) 2′,5′ OAS gene expression”. For the same molecule, the “fold increase in 2′,5′ OAS gene expression” value (2′,5′ OAS gene; lower concentrations (below 70 μM), dose dependent) was 2-15 fold, the IC50 (HCV replicon; 9-13 cells, three separate experiments, read-out: IC50 for reduction of HCV RNA) was 1.5 µM and the “effect upon HBsAg production or secretion, core antigen production or secretion or HBV polymerase activity” value [4] was “Neither Alpha Galactosyl Ceramide or N-9-oxadecyl-6-methyl-DGJ had any Detectable Effect”.
With `CCCCCCCCCCCCCCCCCCCCCCCCCC(=O)N[C@@H](CO[C@H]1O[C@H](CO)[C@H](O)[C@H](O)[C@H]1O)[C@H](O)[C@H](O)CCCCCCCCCCCCCC` [alpha galactosyl ceramide, reference compound] the IC50 (HBV [3]) was about 0.0004 µM, the “secretion of enveloped HBV” value (HBV [3]) was “inhibited the secretion of enveloped HBV” and the toxicity (Hep G2 2.2.15 cells; FIG. 2-3) was “little or no toxicity”. For the same molecule, the CC50 (Hep G2 2.2.15 cells; Hep G2 2.2.15 cells, 3 days, MTT, read-out: CC50) was 8 µM, the “induction of medium (p69) and small” value (2′,5′ OAS gene) was “induced only the small (p40) 2′,5′ OAS gene expression” and the “effect upon HBsAg production or secretion, core antigen production or secretion or HBV polymerase activity” value [4] was “Neither Alpha Galactosyl Ceramide or N-9-oxadecyl-6-methyl-DGJ had any Detectable Effect”.
In the case of interferon alpha, the “secretion of enveloped HBV” value (HBV [3]) is reported as “inhibits secretion effectively”, the “induction of medium (p69) and small” value (2′,5′ OAS gene) is reported as “potent inducer of both the medium (p69) and small (p40) 2′,5′ OAS genes” and the “replication of HCV RNA in 9-13 cells” value (HCV replicon) is reported as “sensitive to interferon alpha”.
